Assay [1] relates to NCI-H929 human multiple myeloma tumor cell line. Kind of assay: NCI-H929 cell viability assay (CellTiter-Glo, 24 hours). Type of assay: cell-based. The settings on record: Homo sapiens, NCI-H929, 24 h, read-out: H929 Viability IC50 (μM, 10% FBS), 10% FBS, 24 hours of compound treatment. (In ATP-based viability assays light output follows the ATP content of the culture.)
Assay [2] relates to AMO-1 human multiple myeloma tumor cell line. The experiment in a line: AMO-1 cell viability assay (CellTiter-Glo, 24 hours). Format: cell-based. The settings on record: Homo sapiens, AMO1, 24 h, read-out: AMO-1 Viability IC50 (μM, 10% FBS), 10% FBS, 24 hours of compound treatment.
A further assay concerns the target GST-MCL-1 (Homo sapiens, UniProt Q07820). Kind of assay: TR-FRET MCL-1 binding assay (competition with probe F-Bak). The settings on record: for Ki: MCL-1 Binding Ki (nM, 10% HS), in the presence of 10% HS (human serum); for pKi: without HS, read-out: MCL-1 Binding Ki. As to the method:
Tb-anti-GST antibody was purchased from Invitrogen (Catalog No. PV4216).
For the assay, an acoustic dispenser was used to prepare dilution series from 10 mM test compounds in 100% DMSO and directly transfer 160 nL into low volume 384-well assay plates. 8 μL of a protein/probe/antibody mix was then added to each well resulting in final concentrations listed below: • Test compound: 11 three-fold dilutions beginning at 25 μM
The samples were then mixed on a shaker for 1 minute and incubated for an additional 2 hours at room temperature. For each assay plate, a probe/antibody and protein/antibody/probe mixture were included as a negative and a positive control, respectively. Fluorescence was measured on the Envision (Perkin Elmer) using a 340/35 nm excitation filter and 520/525 (F-Bak) and 495/510 nm (Tb-labeled anti-his antibody) emission filters. […] The TR-FRET assay can be performed in the presence of varying concentrations of human serum (HS) or fetal bovine serum (FBS). Compounds were tested both without HS and in the presence of 10% HS.
Background: In TR-FRET formats the signal depends on donor and acceptor labels being close together.

pKi: −log10 of the molar value. Like-named read-outs stand apart in the source and are kept apart here.

Sequence of GST-MCL-1 (Q07820 whole entry): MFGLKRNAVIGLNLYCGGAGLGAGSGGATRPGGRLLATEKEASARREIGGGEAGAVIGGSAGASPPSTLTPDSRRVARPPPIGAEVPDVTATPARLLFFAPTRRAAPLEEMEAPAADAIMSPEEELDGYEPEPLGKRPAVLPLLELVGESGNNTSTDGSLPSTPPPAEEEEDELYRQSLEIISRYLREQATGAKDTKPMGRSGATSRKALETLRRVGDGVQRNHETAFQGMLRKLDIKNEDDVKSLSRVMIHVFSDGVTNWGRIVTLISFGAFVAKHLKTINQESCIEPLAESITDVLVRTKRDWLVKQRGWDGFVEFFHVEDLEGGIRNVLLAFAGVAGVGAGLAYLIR

The IC50 is the point on the concentration scale where inhibition reaches its midpoint. The Ki is the equilibrium dissociation constant of an inhibitor or competing ligand from its target. Broadly, the pKi is the Ki on a negative log10 scale, so that one unit is a factor of ten. `COCCOCCOCCOc1ccc(-c2nccc(COc3ccc4cc3C[C@H](C(=O)O)Oc3ncnc5sc(-c6ccc(F)cc6)c(c35)-c3c(C)c(Cl)c(c(Cl)c3C)O[C@H](CN3CCN(C)CC3)CO4)n2)cc1` [Example 16, (7R,16R)-19,23-dichloro-1-(4-fluorophenyl)-10-{[2-(4-{2-[2-(2-methoxyethoxy)ethoxy]ethoxy}phenyl)pyrimidin-4-yl]methoxy}-20,22-dimethyl-16-[(4-methylpiperazin-1-yl)methyl]-7,8,15,16-tetrahydro-18,21-etheno-13,9-(metheno)-6,14,17-trioxa-2-thia-3,5-diazacyclononadeca[1,2,3-cd]indene-7-carboxylic Acid]: the IC50 stood at 0.000347 µM in assay [1] and 0.000177 µM in assay [2]. Also, the inhibition constant (Ki) on GST-MCL-1 was determined as 0.359 nM. Also, at GST-MCL-1, the pKi was 10.55.

On to `Cc1c(Cl)c2c(Cl)c(C)c1-c1c(-c3ccc(F)cc3)sc3ncnc(c13)O[C@@H](C(=O)O)Cc1cc(ccc1OCc1ccnc([C@H]3CC[C@H](OCCOCC4COCCO4)CC3)n1)OC[C@@H](CN1CCN(C)CC1)O2` (stereo partly drawn) [Example 92, (7R,16R)-19,23-dichloro-10-({2-[(1r,4r)-4-{2-[(1,4-dioxan-2-yl)methoxy]ethoxy}cyclohexyl]pyrimidin-4-yl}methoxy)-1-(4-fluorophenyl)-20,22-dimethyl-16-[(4-methylpiperazin-1-yl)methyl]-7,8,15,16-tetrahydro-18,21-etheno-13,9-(metheno)-6,14,17-trioxa-2-thia-3,5-diazacyclononadeca[1,2,3-cd]indene-7-carboxylic Acid], for which the IC50 in assay [1] was 0.00031 µM; in assay [2] it was 0.000223 µM.

Regarding `COCCOCCOCCOCCOCCOCCOCCOCCOCCOCCOCCNC(=O)c1ccc(-c2nccc(COc3ccc4cc3C[C@H](C(=O)O)Oc3ncnc5sc(-c6ccc(F)cc6)c(c35)-c3c(C)c(Cl)c(c(Cl)c3C)O[C@H](CN3CCN(C)CC3)CO4)n2)cc1` [Example 47, (7R,16R)-19,23-dichloro-1-(4-fluorophenyl)-20,22-dimethyl-16-[(4-methylpiperazin-1-yl)methyl]-10-[(2-{4-[(2,5,8,11,14,17,20,23,26,29,32-undecaoxatetratriacontan-34-yl)carbamoyl]phenyl}pyrimidin-4-yl)methoxy]-7,8,15,6-tetrahydro-18,21-etheno-13,9-(metheno)-6,14,17-trioxa-2-thia-3,5-diazacyclononadeca[1,2,3-cd]indene-7-carboxylic Acid], the 50% inhibitory concentration (IC50) in assay [1] was found to be 0.0205 µM. Besides, the 50% inhibitory concentration (IC50) in assay [2] was determined as 0.0182 µM. Further, at GST-MCL-1, the inhibitory constant (Ki) is 3.12 nM and the pKi is 10.74.

For `Cc1c(Cl)c2c(Cl)c(C)c1-c1c(-c3ccc(F)cc3)sc3ncnc(c13)O[C@@H](C(=O)O)Cc1cc(ccc1OCc1ccnc(C3=CCC(CC(=O)O)CC3)n1)OC[C@@H](CN1CCN(C)CC1)O2` (single isomer, unassigned) [Example 35, (7R,16R)-10-({2-[(4S*)-4-(carboxymethyl)cyclohex-1-en-1-yl]pyrimidin-4-yl}methoxy)-19,23-dichloro-1-(4-fluorophenyl)-20,22-dimethyl-16-[(4-methylpiperazin-1-yl)methyl]-7,8,15,16-tetrahydro-18,21-etheno-13,9-(metheno)-6,14,17-trioxa-2-thia-3,5-diazacyclononadeca[1,2,3-cd]indene-7-carboxylic Acid], the IC50 in assay [1] turned out to be 0.017 µM. Also, the IC50 in assay [2] came out at 0.01 µM. In addition, at GST-MCL-1, the Ki worked out at 0.113 nM and the pKi is 11.15.

In the case of `COCCOCCOCCOc1ccc(-c2nccc(COc3ccc4cc3C[C@H](C(=O)O)Oc3ncnc5sc(-c6ccc(F)cc6)c(c35)-c3c(C)c(Cl)c(c(Cl)c3C)O[C@H](CN3CCN(C)CC3)CO4)n2)cn1` [Example 46, (7R,16R)-19,23-dichloro-1-(4-fluorophenyl)-10-{[2-(6-{2-[2-(2-methoxyethoxy)ethoxy]ethoxy}pyridin-3-yl)pyrimidin-4-yl]methoxy}-20,22-dimethyl-16-[(4-methylpiperazin-1-yl)methyl]-7,8,15,16-tetrahydro-18,21-etheno-13,9-(metheno)-6,14,17-trioxa-2-thia-3,5-diazacyclononadeca[1,2,3-cd]indene-7-carboxylic Acid], the IC50 in assay [1] was found to be 0.000388 µM. Besides, the IC50 in assay [2] was 0.00027 µM. Besides, on GST-MCL-1, the Ki is 1.08 nM and the negative logarithm of the Ki (pKi) is 8.99.

As to `Cc1c(Cl)c2c(Cl)c(C)c1-c1c(-c3ccc(F)cc3)sc3ncnc(c13)O[C@@H](C(=O)O)Cc1cc(ccc1OCc1ccnc(-c3ccc(OC[C@@H]4CN(C)CCCO4)cc3)n1)OC[C@@H](CN1CCN(C)CC1)O2` [Example 173, (7R,16R)-19,23-dichloro-1-(4-fluorophenyl)-20,22-dimethyl-10-{[2-(4-{[(2S)-4-methyl-1,4-oxazepan-2-yl]methoxy}phenyl)pyrimidin-4-yl]methoxy}-16-[(4-methylpiperazin-1-yl)methyl]-7,8,15,16-tetrahydro-18,21-etheno-13,9-(metheno)-6,14,17-trioxa-2-thia-3,5-diazacyclononadeca[1,2,3-cd]indene-7-carboxylic Acid], the values for the IC50 in assay [1] and in assay [2] were 0.00452 µM and 0.00114 µM, respectively.

Turning to `Cc1c(Cl)c2c(Cl)c(C)c1-c1c(-c3ccc(F)cc3)sc3ncnc(c13)O[C@@H](C(=O)O)Cc1cc(ccc1OCc1ccnc(-c3ccc(O[C@H]4CO[C@H]5[C@@H]4OC[C@@H]5O)cc3)n1)OC[C@@H](CN1CCN(C)CC1)O2` [Example 174, (7R,16R)-19,23-dichloro-1-(4-fluorophenyl)-10-{[2-(4-{[(3S,3aR,6S,6aR)-6-hydroxyhexahydrofuro[3,2-b]furan-3-yl]oxy}phenyl)pyrimidin-4-yl]methoxy}-20,22-dimethyl-16-[(4-methylpiperazin-1-yl)methyl]-7,8,15,16-tetrahydro-18,21-etheno-13,9-(metheno)-6,14,17-trioxa-2-thia-3,5-diazacyclononadeca[1,2,3-cd]indene-7-carboxylic Acid], at GST-MCL-1, the Ki was 0.2 nM and the negative logarithm of the Ki (pKi) is 11.10.

With `COCCOCCOc1ccc(-c2ccccc2OC)nc1COc1ccc2cc1C[C@H](C(=O)O)Oc1ncnc3sc(-c4ccc(F)cc4)c(c13)-c1c(C)c(Cl)c(c(Cl)c1C)O[C@H](CN1CCN(C)CC1)CO2` [Example 178, (7R,16R)-19,23-dichloro-1-(4-fluorophenyl)-10-({3-[2-(2-methoxyethoxy)ethoxy]-6-(2-methoxyphenyl)pyridin-2-yl}methoxy)-20,22-dimethyl-16-[(4-methylpiperazin-1-yl)methyl]-7,8,15,16-tetrahydro-18,21-etheno-9,13-(metheno)-6,14,17-trioxa-2-thia-3,5-diazacyclononadeca[1,2,3-cd]indene-7-carboxylic Acid], the IC50 came to 0.37 µM in assay [1] and 0.152 µM in assay [2].

Turning to `COCCOCCOCCOCCOCCOC[C@H]1CN(c2nccc(COc3ccc4cc3C[C@H](C(=O)O)Oc3ncnc5sc(-c6ccc(F)cc6)c(c35)-c3c(C)c(Cl)c(c(Cl)c3C)O[C@H](CN3CCN(C)CC3)CO4)n2)CCO1` [Example 83, (7R,16R)-19,23-dichloro-1-(4-fluorophenyl)-10-({2-[(2R)-2-(2,5,8,11,14,17-hexaoxaoctadecan-1-yl)morpholin-4-yl]pyrimidin-4-yl}methoxy)-20,22-dimethyl-16-[(4-methylpiperazin-1-yl)methyl]-7,8,15,16-tetrahydro-18,21-etheno-13,9-(metheno)-6,14,17-trioxa-2-thia-3,5-diazacyclononadeca[1,2,3-cd]indene-7-carboxylic Acid], in assay [1], the 50% inhibitory concentration (IC50) was found to be 0.0026 µM.

For `Cc1c(Cl)c2c(Cl)c(C)c1-c1c(-c3ccc(F)cc3)sc3ncnc(c13)O[C@@H](C(=O)O)Cc1cc(ccc1OCc1ccnc(OC[C@@H]3CN(C)CCCO3)n1)OC[C@@H](CN1CCN(C)CC1)O2` [Example 177, (7R,16R)-19,23-dichloro-1-(4-fluorophenyl)-20,22-dimethyl-10-[(2-{[(2S)-4-methyl-1,4-oxazepan-2-yl]methoxy}pyrimidin-4-yl)methoxy]-16-[(4-methylpiperazin-1-yl)methyl]-7,8,15,16-tetrahydro-18,21-etheno-13,9-(metheno)-6,14,17-trioxa-2-thia-3,5-diazacyclononadeca[1,2,3-cd]indene-7-carboxylic Acid], the 50% inhibitory concentration (IC50) was found to be 0.00929 µM in assay [1] and 0.00422 µM in assay [2].

For `Cc1c(Cl)c2c(Cl)c(C)c1-c1c(-c3ccc(F)cc3)sc3ncnc(c13)O[C@@H](C(=O)O)Cc1cc(ccc1OCc1ccnc(-c3ccc(OCCN4CCOCC4)cc3)n1)OC[C@@H](CN1CCN(C)CC1)O2` [Example 168, (7R,16R)-19,23-dichloro-1-(4-fluorophenyl)-20,22-dimethyl-16-[(4-methylpiperazin-1-yl)methyl]-10-[(2-{4-[2-(morpholin-4-yl)ethoxy]phenyl}pyrimidin-4-yl)methoxy]-7,8,15,16-tetrahydro-18,21-etheno-13,9-(metheno)-6,14,17-trioxa-2-thia-3,5-diazacyclononadeca[1,2,3-cd]indene-7-carboxylic Acid], on GST-MCL-1, the inhibitory constant (Ki) came out at 0.671 nM and the pKi was 10.60.

For the origin of these results see patent publication US20250313572A1, “MACROCYCLIC MCL-1 INHIBITORS AND METHODS OF USE” (AbbVie Inc., priority 2017, published 2025).
